Source: US11135234B2, “Effective aminoglycoside antibiotic for multidrug-resistant bacteria” (MICROBIAL CHEMISTRY RESEARCH FOUNDATION, priority 2015, dated 2021)
In brackets after ≈: the same amount, converted by molar mass.

Key:
S. aureus RN4220 = assay: MIC, agar plate dilution method, S. aureus RN4220; assay type: cell-based, Staphylococcus aureus; conditions: for minimal inhibitory concentration (MIC): S. aureus RN4220, Sensitive bacterium; for MIC: Staphylococcus aureus, RN4220, S. aureus RN4220, Sensitive bacterium, read-out: minimal inhibitory concentration (MIC)
How it was run: (§1)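 Minimal inhibitory concentration (μg/mL) was determined by agar plate dilution following the Japan Society of Chemotherapy method.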

S. aureus RN4220/pMS520 = assay: MIC, agar plate dilution method, S. aureus RN4220/pMS520; assay type: cell-based, Staphylococcus aureus; conditions: for minimal inhibitory concentration (MIC): S. aureus RN4220/pMS520, MRSA; for MIC: Staphylococcus aureus, MRSA, read-out: minimal inhibitory concentration (MIC), S. aureus RN4220/pMS520, MRSA
How it was run: as §1

S. aureus MF490 = assay: MIC, agar plate dilution method, S. aureus MF490; assay type: cell-based, Staphylococcus aureus; conditions: for minimal inhibitory concentration (MIC): S. aureus MF490, MRSA; for MIC: Staphylococcus aureus, MRSA, read-out: minimal inhibitory concentration (MIC)
How it was run: as §1

E. faecium ATCC19434 = assay: MIC, agar plate dilution method, E. faecium ATCC19434; assay type: cell-based, Enterococcus faecium; conditions: for minimal inhibitory concentration (MIC): E. faecium ATCC19434; for MIC: Enterococcus faecium, ATCC19434, E. faecium ATCC19434, read-out: minimal inhibitory concentration (MIC)
How it was run: as §1

E. coli JM109/pMW218 = assay: MIC, agar plate dilution method, E. coli JM109/pMW218; assay type: cell-based, Escherichia coli; conditions: for minimal inhibitory concentration (MIC): E. coli JM109/pMW218, Sensitive bacterium; for MIC: Escherichia coli, JM109/PMW218, E. coli JM109/pMW218, Sensitive bacterium, read-out: minimal inhibitory concentration (MIC)
How it was run: as §1

[1] = tested on: K. pneumoniae ATCC BAA-1705; assay: MIC, agar plate dilution method, K. pneumoniae ATCC BAA-1705; assay type: cell-based, Klebsiella pneumoniae; conditions: for minimal inhibitory concentration (MIC): K. pneumoniae ATCC BAA-1705, KPC-producing strain; for MIC: Klebsiella pneumoniae, ATCCBAA1705, K. pneumoniae ATCC BAA-1705, KPC-producing strain, read-out: minimal inhibitory concentration (MIC)
How it was run: as §1

[2] = tested on: K. pneumoniae ATCC BAA-2146; assay: MIC, agar plate dilution method, K. pneumoniae ATCC BAA-2146; assay type: cell-based, Klebsiella pneumoniae; conditions: for minimal inhibitory concentration (MIC): K. pneumoniae ATCC BAA-2146, NDM-producing strain; for MIC: Klebsiella pneumoniae, ATCCBAA2146, K. pneumoniae ATCC BAA-2146, NDM-producing strain, read-out: minimal inhibitory concentration (MIC)
How it was run: as §1

[3] = tested on: A. baumannii ATCC BAA-1710; assay: MIC, agar plate dilution method, A. baumannii ATCC BAA-1710; assay type: cell-based, Acinetobacter baumannii; conditions: for minimal inhibitory concentration (MIC): A. baumannii ATCC BAA-1710, MDRA; for MIC: Acinetobacter baumannii, ATCCBAA1710, A. baumannii ATCC BAA-1710, MDRA, read-out: minimal inhibitory concentration (MIC)
How it was run: as §1

S. marcescens TH-0447 = assay: MIC, agar plate dilution method, S. marcescens TH-0447; assay type: cell-based, Serratia marcescens; conditions: for minimal inhibitory concentration (MIC): S. marcescens TH-0447, AMK-resistant; for MIC: Serratia marcescens, TH0447, S. marcescens TH-0447, AMK-resistant, read-out: minimal inhibitory concentration (MIC)
How it was run: as §1

S. marcescens GN6944 = assay: MIC, agar plate dilution method, S. marcescens GN6944; assay type: cell-based, Serratia marcescens; conditions: S. marcescens GN6944, GM-resistant; for MIC: Serratia marcescens, read-out: minimal inhibitory concentration (MIC)
How it was run: as §1

P. aeruginosa PAO1 = assay: MIC, agar plate dilution method, P. aeruginosa PAO1; assay type: cell-based, Pseudomonas aeruginosa; conditions: for minimal inhibitory concentration (MIC): P. aeruginosa PAO1, Sensitive bacterium; for MIC: Pseudomonas aeruginosa, PAO1, P. aeruginosa PAO1, Sensitive bacterium, read-out: minimal inhibitory concentration (MIC)
How it was run: as §1

P. aeruginosa PAO1/GN315 = assay: MIC, agar plate dilution method, P. aeruginosa PAO1/GN315; assay type: cell-based, Pseudomonas aeruginosa; conditions: for minimal inhibitory concentration (MIC): P. aeruginosa PAO1/GN315, AMK-resistant; for MIC: Pseudomonas aeruginosa, read-out: minimal inhibitory concentration (MIC), P. aeruginosa PAO1/GN315, AMK-resistant
How it was run: as §1

P. aeruginosa MSC17707 = assay: MIC, agar plate dilution method, P. aeruginosa MSC17707; assay type: cell-based, Pseudomonas aeruginosa; conditions: for minimal inhibitory concentration (MIC): P. aeruginosa MSC17707, AMK-resistant; for MIC: Pseudomonas aeruginosa, MSC17707, P. aeruginosa MSC17707, AMK-resistant, read-out: minimal inhibitory concentration (MIC)
How it was run: as §1

P. aeruginosa MSC01035 = assay: MIC, agar plate dilution method, P. aeruginosa MSC01035; assay type: cell-based, Pseudomonas aeruginosa; conditions: P. aeruginosa MSC01035, ABK-resistant; for MIC: Pseudomonas aeruginosa, read-out: minimal inhibitory concentration (MIC)
How it was run: as §1

| Compound | minimal inhibitory concentration (MIC) (S. aureus RN4220) [µg/mL] | minimal inhibitory concentration (MIC) (S. aureus RN4220/pMS520) [µg/mL] | minimal inhibitory concentration (MIC) (S. aureus MF490) [µg/mL] | minimal inhibitory concentration (MIC) (E. faecium ATCC19434) [µg/mL] | minimal inhibitory concentration (MIC) (E. coli JM109/pMW218) [µg/mL] | minimal inhibitory concentration (MIC) [1] [µg/mL] | minimal inhibitory concentration (MIC) [2] [µg/mL] | minimal inhibitory concentration (MIC) [3] [µg/mL] | minimal inhibitory concentration (MIC) (S. marcescens TH-0447) [µg/mL] | minimal inhibitory concentration (MIC) (S. marcescens GN6944) [µg/mL] | minimal inhibitory concentration (MIC) (P. aeruginosa PAO1) [µg/mL] | minimal inhibitory concentration (MIC) (P. aeruginosa PAO1/GN315) [µg/mL] | minimal inhibitory concentration (MIC) (P. aeruginosa MSC17707) [µg/mL] | minimal inhibitory concentration (MIC) (P. aeruginosa MSC01035) [µg/mL] | MIC (S. aureus RN4220) [µg/mL] | MIC (S. aureus RN4220/pMS520) [µg/mL] | MIC (S. aureus MF490) [µg/mL] | MIC (E. faecium ATCC19434) [µg/mL] | MIC (E. coli JM109/pMW218) [µg/mL] | MIC [1] [µg/mL] | further results |
| --- | --- | --- | --- | --- | --- | --- | --- | --- | --- | --- | --- | --- | --- | --- | --- | --- | --- | --- | --- | --- | --- |
| gentamicin [GM, reference compound] | 0.5 | 0.5 | >64 | 8 | 0.25 | 2 | >64 | >64 | 32 | 64 | 2 | 8 | 8 | >64 | – | – | – | – | – | – | – |
| CNC1C(OC2OC(CO)C(NC(=N)N)CC2O)OC2CC(N)C(OC3C(N)CC(N)C(O)C3O)OC2C1O (stereo not drawn) [Compound X4-a, 4″-deamino-3″-deoxy-5-epi-4″-guanidinoapramycin] | 1 (≈ 1.77 µM) | 1 (≈ 1.77 µM) | 4 (≈ 7.07 µM) | 8 (≈ 14.1 µM) | 0.5 (≈ 0.884 µM) | 1 (≈ 1.77 µM) | 1 (≈ 1.77 µM) | 4 (≈ 7.07 µM) | 4 (≈ 7.07 µM) | 4 (≈ 7.07 µM) | 4 (≈ 7.07 µM) | 4 (≈ 7.07 µM) | 8 (≈ 14.1 µM) | 8 (≈ 14.1 µM) | – | – | – | – | – | – | – |
| CN[C@@H]1[C@@H](O[C@H]2O[C@H](CO)[C@@H](NC(=N)N)[C@H](O)[C@H]2O)O[C@H]2C[C@@H](N)[C@@H](O[C@H]3[C@@H](O)[C@@H](O)[C@H](N)C[C@@H]3N)O[C@@H]2[C@@H]1O [Compound S1-j, 4″-deamino-5-epi-4″-guanidinoapramycin] | 2 (≈ 3.44 µM) | 1 (≈ 1.72 µM) | 4 (≈ 6.88 µM) | 8 (≈ 13.8 µM) | 0.5 (≈ 0.86 µM) | 1 (≈ 1.72 µM) | 1 (≈ 1.72 µM) | 4 (≈ 6.88 µM) | 4 (≈ 6.88 µM) | 4 (≈ 6.88 µM) | 2 (≈ 3.44 µM) | 4 (≈ 6.88 µM) | 4 (≈ 6.88 µM) | 4 (≈ 6.88 µM) | – | – | – | – | – | – | – |
| CNC1C(O[C@H]2OC(CO)[C@@H](NC(=N)N)[C@H](O)C2O)O[C@H]2CC(N)[C@@H](O[C@H]3CC[C@H](N)CC3N)OC2C1O (stereo partly shown) [Compound T2-e, 4″-deamino-5,6-dideoxy-4″-guanidinoapramycin] | – | – | – | – | – | – | – | – | – | – | – | – | – | – | 1 (≈ 1.82 µM) | 0.5 (≈ 0.91 µM) | 2 (≈ 3.64 µM) | 4 (≈ 7.28 µM) | 0.5 (≈ 0.91 µM) | 1 (≈ 1.82 µM) | MIC [2]: 0.5 µg/mL (≈ 0.91 µM); MIC [3]: 4 µg/mL (≈ 7.28 µM); MIC (S. marcescens TH-0447): 4 µg/mL (≈ 7.28 µM); MIC (S. marcescens GN6944): 2 µg/mL (≈ 3.64 µM); MIC (P. aeruginosa PAO1): 4 µg/mL (≈ 7.28 µM); MIC (P. aeruginosa PAO1/GN315): 4 µg/mL (≈ 7.28 µM); MIC (P. aeruginosa MSC17707): 4 µg/mL (≈ 7.28 µM); MIC (P. aeruginosa MSC01035): 8 µg/mL (≈ 14.6 µM) |
| CNCC(=O)N[C@@H]1C(CO)O[C@H](OC2O[C@H]3C[C@H](N)[C@@H](O[C@@H]4C(N)C[C@@H](N)C[C@H]4O)OC3C(O)C2NC)C(O)[C@H]1O (stereo partly drawn) [Compound V1-p, 6-deoxy-5-epi-4″-N-sarcosylapramycin] | – | – | – | – | – | – | – | – | – | – | – | – | – | – | 1 (≈ 1.68 µM) | 1 (≈ 1.68 µM) | 4 (≈ 6.73 µM) | 8 (≈ 13.5 µM) | 1 (≈ 1.68 µM) | 1 (≈ 1.68 µM) | MIC [2]: 1 µg/mL (≈ 1.68 µM); MIC [3]: 4 µg/mL (≈ 6.73 µM); MIC (S. marcescens TH-0447): 8 µg/mL (≈ 13.5 µM); MIC (S. marcescens GN6944): 4 µg/mL (≈ 6.73 µM); MIC (P. aeruginosa PAO1): 2 µg/mL (≈ 3.36 µM); MIC (P. aeruginosa PAO1/GN315): 4 µg/mL (≈ 6.73 µM); MIC (P. aeruginosa MSC17707): 2 µg/mL (≈ 3.36 µM); MIC (P. aeruginosa MSC01035): 4 µg/mL (≈ 6.73 µM) |
